Results from BigSolDB 2.1.

CN1COCN(Cc2cnc(Cl)s2)C1=N[N+](=O)[O-]
solubility (mole fraction)
Conditions | 278.15 K | 283.15 K | 288.15 K | 293.15 K | 298.15 K | 303.15 K | 308.15 K | 313.15 K | 318.15 K | 323.15 K
in DMF | 0.059 | 0.0658 | 0.0738 | 0.0816 | 0.0892 | 0.0985 | 0.11 | 0.123 | 0.137 | 0.152
in NMP | 0.0818 | 0.0882 | 0.0952 | 0.102 | 0.111 | 0.119 | 0.128 | 0.138 | 0.149 | 0.161
in acetone | 0.00632 | 0.00763 | 0.00888 | 0.0101 | 0.0121 | 0.014 | 0.0164 | 0.0194 | 0.023 | 0.0268
in dichloromethane | 0.0126 | 0.0152 | 0.0174 | 0.0197 | 0.0222 | 0.0249 | 0.0277 | 0.0306 | – | –
in ethyl acetate | 0.00099 | 0.00125 | 0.00155 | 0.00183 | 0.0022 | 0.00257 | 0.00295 | 0.00339 | 0.00384 | 0.00429
in methyl acetate | 0.00283 | 0.00331 | 0.00382 | 0.00446 | 0.00511 | 0.00597 | 0.00708 | 0.00825 | 0.0096 | 0.0114
